Data on 2 compounds can be found in patent US8187821B2, “Compositions and methods for the modulation of PGRMC1” (University of Utah Research Foundation, priority 2008, dated 2012).

A short description of data set [1]: PGRMC1 binding assay control: non-specific [^3H] ligand association with membranes from untransformed bacteria (−PGRMC1). The following applies: for Q1 / Q2: two binding site model; for Q1: number of non-specific sites; for Q2: number of specific sites. More on the design: species or system E. coli. Here is the method:
IPTG-induced cells were harvested by centrifugation (5,000 rpm; 5 min) and washed with ice-cold H2O. The pellet was resuspended in 5 mL buffer A (50 mM Tris-HCl pH 7.5, 150 mM NaCl, 0.1% NP40, and 10% glycerol) with 5-10 mg lysozyme, and incubated on ice for 30 min. The cells were then disrupted by three bursts of sonication (45 sec) at high intensity with a 45 sec cooling period between bursts. Soluble material was removed by centrifugation (15,000 rpm, 10 min) and the pellet resuspended in 5 mL buffer A. His10-PGRMC1 (His10 disclosed as SEQ ID NO: 14) was confirmed to be present in purified membranes by SDS-PAGE followed by Coomassie stain and western blot using anti-tetra-His (SEQ ID NO: 15) antibody (Qiagen). Total protein in the His10-PGRMC1 (His10 disclosed as SEQ ID NO: 14) transformed and untransformed purified membranes was determined by the Bradford method and membranes were normalized to 10 μg/μL total protein (diluted with buffer A). Purified membranes were then aliquoted and stored frozen until use.
The standard 10 μL binding reaction contained 10 μp purified membranes (total protein) and 10 μM [^3H] progesterone or [^3H] cholesterol (3,000-5,000 cpm) in buffer A: 20% ethanol. Stock solutions (100 μM) of [^3H] cholesterol and [^3H] progesterone containing ˜4×10^4 cpm/μL, were prepared in 95% ethanol. Reactions were prepared in clear 2.0 mL microcentrifuge tubes on ice. To start the reaction, the microfuge tube was briefly mixed (vortex) and placed at 37° C. Following a 10 to 30 min incubation, the tubes were centrifuged in a microfuge (˜13,000 rpm) for 2 min. The supernatant was carefully removed and the pellet was washed with an additional 10 μL water. After a second round of centrifugation (2 min; 13,000 rpm), the resulting supernatant was combined with the first and the pellet was resuspended in 20 μL H2O, Scintillation fluid (700 μL Wallac Optiflour) was added to each fraction and the fractions were mixed extensively. The fractions were then counted in a multi-well scintillation counter (Wallac Microbeta Triluxmax, Waltham, Mass.) for 30 seconds each. Binding are reported as μ/moles of ligand bound per mg of membrane protein. His10-PGRMC1 (His10 disclosed as SEQ ID NO: 14)-specific binding is reported as the difference in binding between transformed and untransformed bacteria. Experimental deviations from the standard assay conditions are noted in individual figure legends.
In order to better understand PGRMC1's biological function and to study ligand binding, an in vitro binding assay was developed. E. coli BL21 codon plus (RIPL) cells were transformed with a vector encoding PGRMC1 that was epitope tagged with 10 histidine (SEQ ID NO: 14) residues at the NH2-terminus. Untransformed BL21 cells were used as the control. A purification procedure was performed to remove soluble proteins and cell components from the transformed (+PGRMC1) and untransformed (−PGRMC1) bacterial membranes. The resulting purified membranes were confirmed for the presence and absence of His10-PGRMC1 (His10 disclosed as SEQ ID NO: 14) respectively by Coomassie stain and western blot using anti-His antibody. The membranes with [^3H] progesterone or [^3H] cholesterol were then incubated. The membranes were spun out, washed, and counted in a scintillation counter. His10-PGRMC1 (His10 disclosed as SEQ ID NO: 14) specific binding was then determined by subtracting total membrane-associated ligand (nmols/mg protein) in membranes prepared from untransformed bacteria (−PGRMC1) with membranes purified from bacteria expressing His10-PGRMC1 (His10 disclosed as SEQ ID NO: 14) (+PGRMC1).
To further explore the nature of ligand binding to His10-PGRMC1 (His10 disclosed as SEQ ID NO: 14), several in silico modeling experiments fitting the saturation data to different models of ligand binding were performed. The best statistical fit of the data was to a two binding site model. […]

In data set [2] the target is T1, His10-PGRMC1 (Homo sapiens, UniProt O00264).
T1 construct: a product containing the full length coding region of PGMRC1 flanked by Nde1 and BamHI restriction sites; made in house; host or cells: E. coli BL21 (DE3) / BL21 codon plus (RIPL); purified bacterial membranes
T1 sequence (O00264 whole entry): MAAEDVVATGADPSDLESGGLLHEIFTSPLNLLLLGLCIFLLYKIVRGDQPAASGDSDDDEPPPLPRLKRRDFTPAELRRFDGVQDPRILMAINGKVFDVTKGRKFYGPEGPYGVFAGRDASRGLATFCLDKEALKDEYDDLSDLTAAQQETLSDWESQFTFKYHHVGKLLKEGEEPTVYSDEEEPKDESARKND
Kind of data set: Coupled time-course proteolysis experiment (protease-sensitive vs protease-resistant specific binding). To be noted: trypsin after ligand incubation, FIG. 10. An excerpt:
(§1) Since data from the competition assays indicate that progesterone and cholesterol bind to the same site within His10-PGRMC1 (His10 disclosed as SEQ ID NO: 14), the reason for the observation of more cholesterol binding in our assays was examined. There appear to be two plausible explanations: one possibility is that there are more cholesterol-specific binding sites on His10-PGRMC1 (His10 disclosed as SEQ ID NO: 14) that comprise the increase in observed binding; the other is that His10-PGRMC1 (His10 disclosed as SEQ ID NO: 14) is catalyzing the incorporation of cholesterol into the membrane. To distinguish between these possibilities, a coupled time-course proteolysis experiment was performed. In these studies, [^3H] progesterone and [^3H] cholesterol were incubated with membranes ±His10-PGRMC1 (His10 disclosed as SEQ ID NO: 14) for increasing time periods. At the end of the incubation period, the membranes were isolated, washed, and resuspended in a trypsin solution to remove all His10-PGRMC1 (His10 disclosed as SEQ ID NO: 14) protein. In this manner any ligand specifically bound to His10-PGRMC1 (His10 disclosed as SEQ ID NO: 14) would be protease-sensitive and be removed from the membrane fraction. Any ligand incorporated into the membrane or other protected site will be protease-resistant and remain in the membrane fraction. After proteolysis the reactions were separated by centrifugation into protease-resistant (membrane) and protease-sensitive (supernatant) fractions and ligand amount determined. […] Total specific binding of progesterone (FIG. 10A, diamonds) increasing over time and occurring at levels consistent with previous studies was observed. […] It is important to note that this ligand incorporation reaction is specific to bound cholesterol as it was observed that all bound progesterone was protein associated. Collectively our findings describe an important and previously uncharacterized function for PGRMC1 and sterol binding proteins in general, that of catalyzing the incorporation of cholesterol into membranes.

The test system of data set [3] is His10-PGRMC1. Described as above. More on the design: species or system human. The following applies: trypsin after ligand incubation, FIG. 10.
Description: as §1

A short description of data set [4]: Solubility of ligand in the binding assay. The following applies: binding assay buffer; read-out: concentration above which only partially soluble in the assay. It is filed as physicochemical. Here is the method: Next, the question of whether binding of ligand to His10-PGRMC1 (His10 disclosed as SEQ ID NO: 14) is saturable was examined. […] Ligand binding time was held constant while increasing the ligand concentration by half logs in each experiment. The ligand concentration spanned four orders of magnitude from lowest to highest. […] Cholesterol was only partially soluble in our assay at concentrations greater than 3 mM so testing saturation at higher concentrations was unable to be performed.

The mark [5] stands for this setting: first category of sites, present in both +PGRMC1 and −PGRMC1 membranes, read-out: Kd of non-specific binding.
The mark [6] stands for this setting: two binding site model fit of saturation data, −PGRMC1 membranes, non-specific site, read-out: Kd1.

Like-named read-outs stand apart in the source and are kept apart here. Bounds are passed on as bounds.

For `CC(C)CCC[C@@H](C)[C@H]1CC[C@H]2[C@@H]3CC=C4C[C@@H](O)CC[C@]4(C)[C@H]3CC[C@]12C` [Cholesterol, cholesterol], the Kd in data set [1] (setting [5]) was roughly 1000 µM. Also, the Kd in data set [1] (setting [6]) stood at 900 µM. In addition, in data set [1] (−PGRMC1 membranes), the Q1 is reported as 8.4 × 10^9 Sites and the Q2 is 0 Sites. In data set [1] (−PGRMC1 membranes, Protease −), the “Membrane-Associated [^3H] Ligand” value is given as 3.7 ± 0.3 nmoles/mg protein. In addition, the “protease-sensitive (protein-associated) specific binding” value in data set [2] is “decreased over time”. In addition, in data set [3], the “protease-resistant (membrane-associated) specific binding” value is “increasingly protease-resistant”. In addition, the solubility in data set [4] is greater than 3000 µM.

For the compound `CC(=O)[C@H]1CC[C@H]2[C@@H]3CCC4=CC(=O)CC[C@]4(C)[C@H]3CC[C@]12C` [Progesterone, progesterone], the Kd in data set [1] (setting [5]) is roughly 1000 µM; in data set [1] (setting [6]) it was 1700 µM. In addition, the Q1 in data set [1] (−PGRMC1 membranes) is given as 8.4 × 10^9 Sites. In data set [1] (−PGRMC1 membranes), this compound showed a Q2 of 0 Sites. Moreover, the “Membrane-Associated [^3H] Ligand” value in data set [1] (−PGRMC1 membranes, Protease + (trypsin before ligand binding)) amounted to 1.6 ± 0.2 nmoles/mg protein; in data set [1] (−PGRMC1 membranes, Protease −) it was 2.4 ± 0.1 nmoles/mg protein. Besides, the “protease-sensitive (protein-associated) specific binding” value in data set [2] is reported as “essentially all”. In addition, the “protease-resistant (membrane-associated) specific binding” value in data set [3] is given as “virtually no”.
